Results on 15 compounds are retold here after patent US7713950B2, “Antibacterial 1-(4-mono-and di-halomethylsulphonylphenyl)-2-acylamino-3-fluoroproponals and preparation thereof” (Intervet Inc., priority 2003, dated 2010).

≈ marks a conversion by molar mass, not a printed value. Some results are limits rather than exact numbers.

Common to all, as to type: cell-based
The subject of one assay is Pasteurella multocida. As to the kind of experiment: Broth microdilution susceptibility testing (MIC), Pasteurella multocida. To be noted: broth microdilution (NCCLS, 2002), read-out: Minimal inhibitory concentration against Pasteurella multocida. Here is the method: (§1) The list is not intended, nor should it be construed, to limit the scope of this invention in any manner whatsoever.
(§2) Compounds were tested for antimicrobial activity against several bacterial stains using standard broth microdilution susceptibility testing methodology (NCCLS, 2002). […] The enhanced activity of Compound 1 is especially noteworthy.
(§3) NCCLS. 2002. Performance standards for antimicrobial disk and dilution susceptibility tests for bacteria isolated from animals; approved standard-second edition. NCCLS document M31-A2 [ISBN 1-56238-461-9]. NCCLS, 940 West Valley Road, Suite 1400, Wayne, Pa. 19087-1898 USA.
Background: Dilution methods test growth across graded concentrations, often in twofold steps.

The subject of assay [1] is Florfenicol-resistant Pasteurella multocida. As to the kind of experiment: Broth microdilution susceptibility testing (MIC), florfenicol-resistant Pasteurella multocida. To be noted: for MIC: Pasteurella multocida, broth microdilution (NCCLS, 2002), florfenicol-resistant strain, read-out: Minimal inhibitory concentration against Florfenicol-resistant Pasteurella multocida. Here is the method: as §1, §2, §3

The test system of the next assay is Escherichia coli. As to the kind of experiment: Broth microdilution susceptibility testing (MIC), Escherichia coli. Conditions: broth microdilution (NCCLS, 2002), read-out: Minimal inhibitory concentration against Escherichia coli. Here is the method:
as §1, §2, §3

A further assay concerns Staphylococcus aureus. As to the kind of experiment: Broth microdilution susceptibility testing (MIC), Staphylococcus aureus. To be noted: broth microdilution (NCCLS, 2002), read-out: Minimal inhibitory concentration against Staphylococcus aureus. The method, then: as §1, §2, §3
Another assay has as its system Mannheimia haemolytica. The experiment in a line: Broth microdilution susceptibility testing (MIC), Mannheimia haemolytica. Conditions: broth microdilution (NCCLS, 2002), read-out: Minimal inhibitory concentration against Mannheimia haemolytica. The method, then:
as §1, §2, §3

In another assay the test system is five bacterial strains. As to the kind of experiment: Broth microdilution susceptibility testing, comparison with florfenicol over the strain panel. Conditions: five bacterial strains of Table 2. Here is the method: as §1, §2, §3

On to `O=C(N[C@H](CO)[C@H](O)c1ccc([N+](=O)[O-])cc1)C(Cl)Cl` [Chloramphenicol, reference compound], for which the MIC with Pasteurella multocida is 0.25 mg/L (≈ 0.774 µM); in assay [1], 16 mg/L (≈ 49.5 µM); in the assay on Escherichia coli it was 4 mg/L (≈ 12.4 µM); with Staphylococcus aureus, 8 mg/L (≈ 24.8 µM); with Mannheimia haemolytica, 1 mg/L (≈ 3.09 µM).

In the case of `O=C(N[C@H](CF)[C@H](O)c1ccc(S(=O)(=O)CF)cc1)C(Cl)Cl` [Compound 1, N-((1S,2R)-1-(Fluoromethyl)-2-{4-[(fluoromethyl)sulfonyl]phenyl}-2-hydroxyethyl)-2,2-dichloroacetamide], the MIC with Pasteurella multocida was determined as 0.06 mg/L (≈ 0.159 µM); in assay [1], 2 mg/L (≈ 5.32 µM); with Escherichia coli, 4 mg/L (≈ 10.6 µM); with Staphylococcus aureus, 2 mg/L (≈ 5.32 µM); in the assay with Mannheimia haemolytica, 0.5 mg/L (≈ 1.33 µM). Besides, in assay [1] (versus florfenicol), the “Activity relative to florfenicol against florfenicol-resistant Pasteurella multocida” value is reported as 8 fold. Besides, the “Activity compared with florfenicol over the strains tested” value in the assay on five bacterial strains is “more active than florfenicol for all five bacterial strains”.

Consider `O=C(N[C@H](CF)[C@H](O)c1ccc(S(=O)(=O)CF)cc1)C(F)(F)F` [Compound 2], for which the MIC amounted to 1 mg/L (≈ 2.77 µM) with Pasteurella multocida; 8 mg/L (≈ 22.1 µM) in assay [1]; 32 mg/L (≈ 88.6 µM) in the assay with Escherichia coli; 16 mg/L (≈ 44.3 µM) in the assay with Staphylococcus aureus; 0.5 mg/L (≈ 1.38 µM) with Mannheimia haemolytica.

For `O=C(N[C@H](CF)[C@H](O)c1ccc(S(=O)(=O)C(Cl)Cl)cc1)C(Cl)Cl` [Compound 3], the MIC in the assay with Pasteurella multocida was 0.5 mg/L (≈ 1.17 µM); in assay [1], 4 mg/L (≈ 9.37 µM); with Escherichia coli it was above 128 mg/L; with Staphylococcus aureus, 8 mg/L (≈ 18.7 µM); in the assay on Mannheimia haemolytica, 0.5 mg/L (≈ 1.17 µM).

With `N#CCC(=O)N[C@H](CF)[C@H](O)c1ccc(S(=O)(=O)CF)cc1` [Compound 4], the MIC in the assay on Pasteurella multocida is 1 mg/L (≈ 3.01 µM); in assay [1], above 128 mg/L; with Escherichia coli, 16 mg/L (≈ 48.1 µM); with Staphylococcus aureus, 8 mg/L (≈ 24.1 µM); in the assay with Mannheimia haemolytica, 0.5 mg/L (≈ 1.5 µM).

With `[N-]=[N+]=NCC(=O)N[C@H](CF)[C@H](O)c1ccc(S(=O)(=O)CF)cc1` [Compound 5], the MIC in the assay with Pasteurella multocida came to 0.25 mg/L (≈ 0.718 µM); in assay [1], 16 mg/L (≈ 45.9 µM); in the assay on Escherichia coli it was 8 mg/L (≈ 23 µM); in the assay on Staphylococcus aureus, 8 mg/L (≈ 23 µM); in the assay on Mannheimia haemolytica, 0.25 mg/L (≈ 0.718 µM).

`C[C@@H](N)C(=O)N[C@H](CF)[C@H](O)c1ccc(S(=O)(=O)CF)cc1` [Compound 6]: the MIC came out at 1 mg/L (≈ 2.97 µM) in the assay on Pasteurella multocida; 128 mg/L (≈ 381 µM) in assay [1]; 32 mg/L (≈ 95.1 µM) in the assay on Escherichia coli; 64 mg/L (≈ 190 µM) with Staphylococcus aureus; 1 mg/L (≈ 2.97 µM) with Mannheimia haemolytica.

For the compound `NCC(=O)N[C@H](CF)[C@H](O)c1ccc(S(=O)(=O)CF)cc1` [Compound 7], the MIC is 1 mg/L (≈ 3.1 µM) with Pasteurella multocida; above 128 mg/L in assay [1]; 128 mg/L (≈ 397 µM) with Escherichia coli; 64 mg/L (≈ 199 µM) with Staphylococcus aureus; 1 mg/L (≈ 3.1 µM) with Mannheimia haemolytica.

Turning to `O=C(N[C@H](CF)[C@H](O)c1ccc(S(=O)(=O)C(F)F)cc1)C(Cl)Cl` [Compound 8], the MIC in the assay with Pasteurella multocida stood at 0.125 mg/L (≈ 0.317 µM); in assay [1], 2 mg/L (≈ 5.07 µM); in the assay on Escherichia coli it was 16 mg/L (≈ 40.6 µM); in the assay with Staphylococcus aureus, 4 mg/L (≈ 10.1 µM); in the assay with Mannheimia haemolytica it was 0.5 mg/L (≈ 1.27 µM).

For `O=C(N[C@H](CF)[C@H](O)c1ccc(S(=O)(=O)CF)cc1)C(F)F` [Compound 9], the MIC is 0.25 mg/L (≈ 0.728 µM) in the assay with Pasteurella multocida; 8 mg/L (≈ 23.3 µM) in assay [1]; 4 mg/L (≈ 11.7 µM) in the assay with Escherichia coli; 8 mg/L (≈ 23.3 µM) with Staphylococcus aureus; 0.5 mg/L (≈ 1.46 µM) in the assay with Mannheimia haemolytica.

As for `O=C(N[C@H](CF)[C@H](O)c1ccc(S(=O)(=O)CF)cc1)C(Cl)Br` (stereo partly drawn) [Compound 10], the MIC in the assay with Pasteurella multocida is 0.25 mg/L (≈ 0.594 µM); in assay [1], 4 mg/L (≈ 9.51 µM); in the assay on Escherichia coli, 8 mg/L (≈ 19 µM); in the assay with Staphylococcus aureus it was 4 mg/L (≈ 9.51 µM); with Mannheimia haemolytica, 0.5 mg/L (≈ 1.19 µM).

Turning to `O=C(N[C@H](CF)[C@H](O)c1ccc(S(=O)(=O)CF)cc1)C(F)Cl` (stereo partly drawn) [Compound 11], the MIC is 0.25 mg/L (≈ 0.695 µM) with Pasteurella multocida; 4 mg/L (≈ 11.1 µM) in assay [1]; 4 mg/L (≈ 11.1 µM) with Escherichia coli; 2 mg/L (≈ 5.56 µM) in the assay with Staphylococcus aureus; 0.25 mg/L (≈ 0.695 µM) in the assay with Mannheimia haemolytica.

For the compound `CC(=O)N[C@H](CF)[C@H](O)c1ccc(S(=O)(=O)CF)cc1` [Compound 12], the MIC is 1 mg/L (≈ 3.25 µM) with Pasteurella multocida; 32 mg/L (≈ 104 µM) in assay [1]; above 128 mg/L in the assay with Escherichia coli; above 128 mg/L in the assay on Staphylococcus aureus; 2 mg/L (≈ 6.51 µM) with Mannheimia haemolytica.

As for `CS(=O)(=O)c1ccc([C@@H](O)[C@@H](CF)NC(=O)C(Cl)Cl)cc1` [Florfenicol, reference compound], the MIC in the assay with Pasteurella multocida came to 0.25 mg/L (≈ 0.698 µM); in assay [1], 16 mg/L (≈ 44.7 µM); with Escherichia coli, 8 mg/L (≈ 22.3 µM); in the assay with Staphylococcus aureus it was 8 mg/L (≈ 22.3 µM); in the assay with Mannheimia haemolytica, 1 mg/L (≈ 2.79 µM).

For the compound `CS(=O)(=O)c1ccc([C@@H](O)[C@@H](CO)NC(=O)C(Cl)Cl)cc1` [Thiamphenicol, reference compound], the figures for the MIC with Pasteurella multocida, with Escherichia coli and in the assay with Mannheimia haemolytica were 0.25 mg/L (≈ 0.702 µM), 64 mg/L (≈ 180 µM) and 1 mg/L (≈ 2.81 µM), respectively.
